Source: patent publication US20250177473A1, “PEPTIDE REGULATORS OF METABOLISM” (Metabico, Inc., priority 2022, published 2025)

Test system: C57BL/6 mice on a high-fat diet
Experiment: Glucose tolerance test in mice on high-fat diet (HFD), acute administration
Format: in vivo, mouse
Settings: Metformin 250 mg/kg single p.o.
Method: A standard laboratory rodent pellet SNIFF RI/M-H V1534-30 (58% carbohydrates, 9% fat, 33% protein, 306 kcal/100 g) was given ad libitum to the control animals. For HFD groups, the high-fat feed was used. For 1 kg of feed, 610 g of ground SNIFF feed and 360 g of melted pork lard were taken, water (˜250 ml, 60-70° C.), 10 g of sodium chloride, 30 g of sodium glutamate were added. The mixture was brewed to a dough consistency, and food granules were formed. Then the granules were dried at 60-70° C. for 10-12 hours. The finished food for consumption was transferred to the animal-keeping area. The prepared food was stored at 4° C. for no more than 7 days. The approximate energy value of the HFD feed was 516 kcal/100 g (45% fat, 35% carbohydrates, 20% protein).
The metabolic syndrome was modeled by keeping animals on a HFD for 16 weeks. The control group was kept on a standard diet (STD) during this period. Animals had free access to feed and water located in the cage lid.
At stage 1 of the study, to replicate the metabolic syndrome, 25 mice were kept on a STD (group 1), 140 mice—on a HFD (groups 2-5). The animals' body weight was monitored weekly. By the end of the 16th week, mice with the maximum gain were selected among the animals kept on a HFD, and four groups of 25 animals were formed.
On the day of the experiment, animals from groups 3-5 were injected with the tested substances: one half of the group (12 or 13 animals) 2 hours before the experiment and the other half—12 hours. Group 1 and 2 (STD control and HFD control) were injected with saline (Table 5).
The administration volume was 10 ml/kg for drugs administered i.p., 6 μl/animal for i.n. administration and 5 ml/kg for drugs administered p.o.
The animals were deprived of food for 12 hours before the glucose tolerance test and euthanasia. Animals had free access to water.
The animals were deprived of food for 12 hours before the test. Baseline glucose level was measured at the end of fasting (0 min time point) in the blood drop taken from the tip of the tail by incision (with a needle) of the tail vein. The test substances were administered according to the treatment group. Half of the animals received drug injections 2 hours, and the other half—12 hours before the test. The glucose concentration in the blood was determined 15, 30, 60, 120 minutes after i.p. 40% glucose solution administration in a dose of […] with Satellite Express (Elta, Russia) test system.

CN(C)C(=N)N=C(N)N [Metformin]
AUC of glucose in GTT (2 h post-treatment): 1808 ± 131 mmol/L/min | glucose concentration in GTT (2 h post-treatment, 0 min (basal)): 7.2 ± 0.374 mmol/L | glucose concentration in GTT (2 h post-treatment, 60 min after glucose): 15.55 ± 1.46 mmol/L | glucose concentration in GTT (2 h post-treatment, 120 min after glucose): 10.08 ± 0.875 mmol/L | AUC of glucose in GTT (12 h post-treatment): 1857 ± 149 mmol/L/min | glucose concentration in GTT (12 h post-treatment, 0 min): 7.0 ± 0.7 mmol/L | glucose concentration in GTT (12 h post-treatment, 60 min after glucose): 15.7 ± 1.8 mmol/L | glucose concentration in GTT (12 h post-treatment, 120 min after glucose): 11.2 ± 1.4 mmol/L
